Data taken from the supplement of paper PMC10307832.

How the values were obtained:
Test in all cases: relative viability (nuclei count vs DMSO), 5 days (fraction); higher = more cells survive
201T = test system: 201T
Outline: (§1)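 Lung cancer cell lines in 1536-well plates were dosed by pin tool the day after seeding, either with one drug alone or with a fixed anchor-drug dose plus five library-drug doses (not always all listed) in √10 steps. After 5 days, cells were fixed and their nuclei stained in one step (final 0.05% Triton X-100, 1% formaldehyde, 1 ug/ml Hoechst), then counted on 4× images. Relative viability is the nuclei count in treated wells divided by that in vehicle wells. Values are medians of duplicate plates.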

BEN = test system: BEN
Outline: as §1

CAL-12T = test system: CAL-12T
Outline: as §1

COR-L 105 = test system: COR-L 105
Outline: as §1

EKVX = test system: EKVX
Outline: as §1

HARA = test system: HARA
Outline: as §1

HCC-366 = test system: HCC-366
Outline: as §1

LK-2 = test system: LK-2
Outline: as §1

LOU-NH91 = test system: LOU-NH91
Outline: as §1

NCI-H1437 = test system: NCI-H1437
Outline: as §1

NCI-H1650 = test system: NCI-H1650
Outline: as §1

NCI-H1666 = test system: NCI-H1666
Outline: as §1

NCI-H2009 = test system: NCI-H2009
Outline: as §1

NCI-H2170 = test system: NCI-H2170
Outline: as §1

NCI-H3122 = test system: NCI-H3122
Outline: as §1

NCI-H441 = test system: NCI-H441
Outline: as §1

NCI-H460 = test system: NCI-H460
Outline: as §1

NCI-H727 = test system: NCI-H727
Outline: as §1

PC-14 = test system: PC-14
Outline: as §1

## Nc1ccn([C@@H]2O[C@H](CO)[C@@H](O)[C@@H]2O)c(=O)n1 [Cytarabine] + CC1(C)CCC(c2ccc(Cl)cc2)=C(CN2CCN(c3ccc(C(=O)NS(=O)(=O)c4ccc(N[C@H](CCN5CCOCC5)CSc5ccccc5)c(S(=O)(=O)C(F)(F)F)c4)cc3)CC2)C1 [Navitoclax] (partner 0.5 µM)
201T; first compound 0.005 µM
  relative viability: 1.24
201T; first compound 0.01581 µM
  relative viability: 1.28
201T; first compound 0.05 µM
  relative viability: 1.19
201T; first compound 0.1581 µM
  relative viability: 1.16
201T; first compound 0.5 µM
  relative viability: 1.14
BEN; first compound 0.005 µM
  relative viability: 0.059
BEN; first compound 0.01581 µM
  relative viability: 0.0619
BEN; first compound 0.05 µM
  relative viability: 0.159
BEN; first compound 0.1581 µM
  relative viability: 0.0433
BEN; first compound 0.5 µM
  relative viability: 0.0457
CAL-12T; first compound 0.005 µM
  relative viability: 1.24
CAL-12T; first compound 0.01581 µM
  relative viability: 1.4
CAL-12T; first compound 0.05 µM
  relative viability: 1.13
CAL-12T; first compound 0.1581 µM
  relative viability: 0.598
CAL-12T; first compound 0.5 µM
  relative viability: 0.244
COR-L 105; first compound 0.005 µM
  relative viability: 0.699
COR-L 105; first compound 0.01581 µM
  relative viability: 0.795
COR-L 105; first compound 0.05 µM
  relative viability: 0.588
COR-L 105; first compound 0.1581 µM
  relative viability: 0.435
COR-L 105; first compound 0.5 µM
  relative viability: 0.34
EKVX; first compound 0.005 µM
  relative viability: 0.936
EKVX; first compound 0.01581 µM
  relative viability: 0.933
EKVX; first compound 0.05 µM
  relative viability: 0.664
EKVX; first compound 0.1581 µM
  relative viability: 0.298
EKVX; first compound 0.5 µM
  relative viability: 0.198
HARA; first compound 0.005 µM
  relative viability: 1.09
HARA; first compound 0.01581 µM
  relative viability: 0.593
HARA; first compound 0.05 µM
  relative viability: 0.302
HARA; first compound 0.1581 µM
  relative viability: 0.178
HARA; first compound 0.5 µM
  relative viability: 0.131
HCC-366; first compound 0.005 µM
  relative viability: 0.889
HCC-366; first compound 0.01581 µM
  relative viability: 0.918
HCC-366; first compound 0.05 µM
  relative viability: 0.328
HCC-366; first compound 0.1581 µM
  relative viability: 0.0444
HCC-366; first compound 0.5 µM
  relative viability: 0.0177
LK-2; first compound 0.005 µM
  relative viability: 0.527
LK-2; first compound 0.01581 µM
  relative viability: 0.425
LK-2; first compound 0.05 µM
  relative viability: 0.316
LK-2; first compound 0.1581 µM
  relative viability: 0.191
LK-2; first compound 0.5 µM
  relative viability: 0.194
LOU-NH91; first compound 0.005 µM
  relative viability: 0.693
LOU-NH91; first compound 0.01581 µM
  relative viability: 0.606
LOU-NH91; first compound 0.05 µM
  relative viability: 0.463
LOU-NH91; first compound 0.1581 µM
  relative viability: 0.332
LOU-NH91; first compound 0.5 µM
  relative viability: 0.35
NCI-H1437; first compound 0.005 µM
  relative viability: 0.875
NCI-H1437; first compound 0.01581 µM
  relative viability: 0.637
NCI-H1437; first compound 0.05 µM
  relative viability: 0.469
NCI-H1437; first compound 0.1581 µM
  relative viability: 0.214
NCI-H1437; first compound 0.5 µM
  relative viability: 0.175
NCI-H1650; first compound 0.005 µM
  relative viability: 1.11
NCI-H1650; first compound 0.01581 µM
  relative viability: 1.24
NCI-H1650; first compound 0.05 µM
  relative viability: 0.616
NCI-H1650; first compound 0.1581 µM
  relative viability: 0.355
NCI-H1650; first compound 0.5 µM
  relative viability: 0.18
NCI-H1666; first compound 0.005 µM
  relative viability: 0.755
NCI-H1666; first compound 0.01581 µM
  relative viability: 0.796
NCI-H1666; first compound 0.05 µM
  relative viability: 0.718
NCI-H1666; first compound 0.1581 µM
  relative viability: 0.41
NCI-H1666; first compound 0.5 µM
  relative viability: 0.355
NCI-H2009; first compound 0.005 µM
  relative viability: 1.13
NCI-H2009; first compound 0.01581 µM
  relative viability: 1.21
NCI-H2009; first compound 0.05 µM
  relative viability: 0.99
NCI-H2009; first compound 0.1581 µM
  relative viability: 0.898
NCI-H2009; first compound 0.5 µM
  relative viability: 0.31
NCI-H2170; first compound 0.01581 µM
  relative viability: 0.448
NCI-H2170; first compound 0.05 µM
  relative viability: 0.361
NCI-H2170; first compound 0.1581 µM
  relative viability: 0.28
NCI-H2170; first compound 0.5 µM
  relative viability: 0.263
NCI-H3122; first compound 0.005 µM
  relative viability: 0.968
NCI-H3122; first compound 0.01581 µM
  relative viability: 0.877
NCI-H3122; first compound 0.05 µM
  relative viability: 0.876
NCI-H3122; first compound 0.1581 µM
  relative viability: 0.682
NCI-H3122; first compound 0.5 µM
  relative viability: 0.457
NCI-H441; first compound 0.005 µM
  relative viability: 0.547
NCI-H441; first compound 0.01581 µM
  relative viability: 0.648
NCI-H441; first compound 0.05 µM
  relative viability: 0.556
NCI-H441; first compound 0.1581 µM
  relative viability: 0.176
NCI-H441; first compound 0.5 µM
  relative viability: 0.161
NCI-H460; first compound 0.005 µM
  relative viability: 1.06
NCI-H460; first compound 0.01581 µM
  relative viability: 1.16
NCI-H460; first compound 0.05 µM
  relative viability: 0.323
NCI-H460; first compound 0.1581 µM
  relative viability: 0.0167
NCI-H460; first compound 0.5 µM
  relative viability: 0.0173
NCI-H727; first compound 0.005 µM
  relative viability: 0.372
NCI-H727; first compound 0.01581 µM
  relative viability: 0.295
NCI-H727; first compound 0.05 µM
  relative viability: 0.238
NCI-H727; first compound 0.1581 µM
  relative viability: 0.181
NCI-H727; first compound 0.5 µM
  relative viability: 0.182
PC-14; first compound 0.005 µM
  relative viability: 0.918
PC-14; first compound 0.01581 µM
  relative viability: 1.03
PC-14; first compound 0.05 µM
  relative viability: 0.803
PC-14; first compound 0.1581 µM
  relative viability: 0.314
PC-14; first compound 0.5 µM
  relative viability: 0.119
